Experimental data from the supplement of paper PMC10949913.

Columns and labels:
Assay in all cases: area under concentration-response curve (viability) (AUC (a.u.)); higher = less active
Details in all cases: 48 h
[1] = test system: CU-ACC1
Summary of the method: (§1)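 Library compounds were tested at 11 concentrations against three adrenocortical carcinoma cell lines in 1,536-well plates. CellTiter-Glo luminescence was read after 48 h and normalised per plate to vehicle and empty-well controls. Only inhibitory or non-responding curve classes from fitted concentration-response curves contributed AC50 and area under the curve.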

[2] = test system: NCI-H295R
Summary of the method: as §1

[3] = test system: CU-ACC2
Summary of the method: as §1

SMILES: Nc1nccn2c1c(-c1cc3cccc(Cl)c3[nH]1)nc2[C@H]1CC[C@H](C(=O)O)CC1
- area under concentration-response curve [1]: 498
- area under concentration-response curve [2]: 536
- area under concentration-response curve [3]: 589

SMILES: CCCC\1=C(/CNC(=O)C2=CC(=CC3=C2C=N[N]3C(C)C)C4=CC=C(N=C4)N5CCN(CC5)C(C)C)C(=O)NC(=C1)\C
- area under concentration-response curve [1]: 379
- area under concentration-response curve [2]: 472
- area under concentration-response curve [3]: 485

SMILES: Cc1noc(C)c1-c1ccc(-c2cc(C(N)=O)c(NC(N)=O)s2)c(O[C@H]2CCNC2)c1
- area under concentration-response curve [1]: 456
- area under concentration-response curve [2]: 447
- area under concentration-response curve [3]: 471

SMILES: O=C1CC[C@H](N2Cc3c(OCc4ccc(CN5CCOCC5)cc4)cccc3C2=O)C(=O)N1
- area under concentration-response curve [1]: 517
- area under concentration-response curve [2]: 552
- area under concentration-response curve [3]: 606

SMILES: NC/1=N/C(=O)C2=C([NH]C=C2CCC3=CC=C(C=C3)C(=O)N[C@@H](CCC(O)=O)C(O)=O)N1
- area under concentration-response curve [1]: 523
- area under concentration-response curve [2]: 537
- area under concentration-response curve [3]: 590

SMILES: O=C(c1cncc(Br)c1)N1CCC(N2CCCC2)CC1
- area under concentration-response curve [1]: 489
- area under concentration-response curve [2]: 528
- area under concentration-response curve [3]: 440

SMILES: CN1C(=O)N[C@@H](Cc2c[nH]c3c(Cl)cccc23)C1=O
- area under concentration-response curve [1]: 531
- area under concentration-response curve [2]: 535
- area under concentration-response curve [3]: 512

SMILES: CCCCCCCCCCCCCCCC(=O)O[C@@H]1[C@@H](O)[C@@H](O)[C@@H]([C@H](NC(=O)[C@@H]2C[C@@H](CCC)CN2C)[C@H](C)Cl)O[C@@H]1SC.Cl
- area under concentration-response curve [1]: 489
- area under concentration-response curve [2]: 513
- area under concentration-response curve [3]: 583

SMILES: OC(=O)CNC(=O)\C1=C(/O)C2=CC=CC=C2N(CC3=CC=CC=C3)C1=O
- area under concentration-response curve [1]: 441
- area under concentration-response curve [2]: 529
- area under concentration-response curve [3]: 539

SMILES: Cc1n[nH]c2ncc(C(=O)N3CCC[C@H]3c3ccc(Cl)cc3)cc12
- area under concentration-response curve [1]: 414
- area under concentration-response curve [2]: 503
- area under concentration-response curve [3]: 540

SMILES: COc1ccc([S+](=O)([O-])N2CCc3cccc(-c4ccncc4)c32)cc1
- area under concentration-response curve [1]: 576
- area under concentration-response curve [2]: 472
- area under concentration-response curve [3]: 563

SMILES: CN1C(=O)[C@@H](NC(=O)[C@H](CCC(F)(F)F)[C@H](CCC(F)(F)F)C(N)=O)\N=C(C2=CC=CC=C2)/C3=CC=CC=C13
- area under concentration-response curve [1]: 514
- area under concentration-response curve [2]: 530
- area under concentration-response curve [3]: 610

SMILES: Cc1cc(C)c(/C=C2\C(=O)Nc3ccccc32)[nH]1
- area under concentration-response curve [1]: 513
- area under concentration-response curve [2]: 532
- area under concentration-response curve [3]: 559

SMILES: CC(C)(C)c1nc(-c2cccc(N[S+](=O)([O-])c3c(F)cccc3F)c2F)c(-c2ccnc(N)n2)s1
- area under concentration-response curve [1]: 542
- area under concentration-response curve [2]: 542
- area under concentration-response curve [3]: 608

SMILES: CCC(CC)CC1(C(=O)Nc2ccccc2SC(=O)C(C)C)CCCCC1
- area under concentration-response curve [1]: 519
- area under concentration-response curve [2]: 537
- area under concentration-response curve [3]: 593

SMILES: O=C(CBr)N1CC([N+](=O)[O-])([N+](=O)[O-])C1
- area under concentration-response curve [1]: 454
- area under concentration-response curve [2]: 439
- area under concentration-response curve [3]: 464

SMILES: CC(C)(C#N)c1cc(Cn2cncn2)cc(C(C)(C)C#N)c1
- area under concentration-response curve [1]: 461
- area under concentration-response curve [2]: 537
- area under concentration-response curve [3]: 574

SMILES: COCCCc1sc(-c2ccccc2)nc1C(=O)Nc1ccccc1-c1nc2cc(CN3CCCC3)cnc2s1
- area under concentration-response curve [1]: 563
- area under concentration-response curve [2]: 567
- area under concentration-response curve [3]: 564

SMILES: CC(C)NCC(O)COc1ccc(CCOCC2CC2)cc1 (stereo unspecified)
- area under concentration-response curve [1]: 493
- area under concentration-response curve [2]: 536
- area under concentration-response curve [3]: 560

SMILES: Nc1ncnc2c1c(COc1cccc(Cl)c1)nn2C1CCOCC1
- area under concentration-response curve [1]: 461
- area under concentration-response curve [2]: 525
- area under concentration-response curve [3]: 578

SMILES: N/C1=N/C(=O)C/2=C(NC[C@@H](CNC3=CC=C(C=C3)C(=O)N[C@@H](CCC([O-])=O)C([O-])=O)N2C=O)\N1
- area under concentration-response curve [1]: 494
- area under concentration-response curve [2]: 529
- area under concentration-response curve [3]: 552

SMILES: COc1ccc([C@@H]2CNC(=O)C2)cc1OC1CCCC1
- area under concentration-response curve [1]: 432
- area under concentration-response curve [2]: 516
- area under concentration-response curve [3]: 457

SMILES: CCCOc1ccn2c(C(C)=O)cc(-c3ccccc3[S+](C)(=O)[O-])c2c1
- area under concentration-response curve [1]: 485
- area under concentration-response curve [2]: 527
- area under concentration-response curve [3]: 445

SMILES: N#C/C(=C(/N)Sc1ccc(N)cc1)c1ccccc1C(F)(F)F
- area under concentration-response curve [1]: 533
- area under concentration-response curve [2]: 585
- area under concentration-response curve [3]: 574

SMILES: CCCC[C@@H](C=O)NC(=O)[C@H](CC(C)C)NC(=O)OCc1ccccc1
- area under concentration-response curve [1]: 463
- area under concentration-response curve [2]: 517
- area under concentration-response curve [3]: 552

SMILES: N#Cc1ccc(N(Cc2ccc(Br)cc2)n2cnnc2)cc1
- area under concentration-response curve [1]: 413
- area under concentration-response curve [2]: 598
- area under concentration-response curve [3]: 633

SMILES: CNC(=O)c1c(C)oc2cc(Oc3ncnc4cc(OC)c(OC)cc34)ccc12
- area under concentration-response curve [1]: 535
- area under concentration-response curve [2]: 593
- area under concentration-response curve [3]: 624

SMILES: CNCC(O)c1ccc(O)cc1 (stereo unspecified)
- area under concentration-response curve [1]: 565
- area under concentration-response curve [2]: 579
- area under concentration-response curve [3]: 618

SMILES: OC(=O)C(CC/1=C/C(=O)NC2=CC=CC=C12)NC(=O)C3=CC=C(Cl)C=C3 (stereo unspecified)
- area under concentration-response curve [1]: 521
- area under concentration-response curve [2]: 483
- area under concentration-response curve [3]: 610

SMILES: NCCCC(O)(P(=O)([O-])O)P(=O)(O)O
- area under concentration-response curve [1]: 511
- area under concentration-response curve [2]: 472
- area under concentration-response curve [3]: 529

SMILES: CC(=O)OC[C@@H]1O[C@H]([C@H](OC(C)=O)[C@@H]1OC(C)=O)N2\C=C/C(=O)NC2=O
- area under concentration-response curve [1]: 497
- area under concentration-response curve [2]: 459
- area under concentration-response curve [3]: 521

SMILES: CNC(=O)[C@H](Cc1ccccc1)NC(=O)[C@H](CC(C)C)[C@H](CSc1cccs1)C(=O)NO
- area under concentration-response curve [1]: 480
- area under concentration-response curve [2]: 560
- area under concentration-response curve [3]: 596

SMILES: CC(=O)NC[C@H]1CN(c2ccc(N3CCOCC3)c(F)c2)C(=O)O1
- area under concentration-response curve [1]: 565
- area under concentration-response curve [2]: 612
- area under concentration-response curve [3]: 700

SMILES: Cc1nnc(C(C)C)n1C1CC2CCC(C1)N2CC[C@H](NC(=O)C1CCC(F)(F)CC1)c1ccccc1 (stereo partly specified)
- area under concentration-response curve [1]: 561
- area under concentration-response curve [2]: 559
- area under concentration-response curve [3]: 533

SMILES: C[C@]\1(CCS\C(=N1)N)C2=CC(=C(F)C=C2F)C3=CN=CN=C3
- area under concentration-response curve [1]: 478
- area under concentration-response curve [2]: 509
- area under concentration-response curve [3]: 544

SMILES: Nc1nc(Cl)nc2c1ncn2[C@@H]1O[C@H](CO)[C@@H](O)[C@@H]1F
- area under concentration-response curve [1]: 468
- area under concentration-response curve [2]: 537
- area under concentration-response curve [3]: 559

SMILES: CC(C)C[C@@H](N)[C@H](O)C(=O)N[C@H](C(=O)N[C@H](C(=O)N[C@@H](CC(=O)O)C(=O)O)C(C)C)C(C)C
- area under concentration-response curve [1]: 544
- area under concentration-response curve [2]: 549
- area under concentration-response curve [3]: 530

SMILES: Cn1cc(-c2nc(N[C@@H]3CCCC[C@@H]3N)c(F)c3c2C(=O)NC3)cn1
- area under concentration-response curve [1]: 623
- area under concentration-response curve [2]: 660
- area under concentration-response curve [3]: 719

SMILES: Cc1ccc(-c2ccc(C)cn2)nc1
- area under concentration-response curve [1]: 405
- area under concentration-response curve [2]: 384
- area under concentration-response curve [3]: 342

SMILES: CC1COC2=C3N1\C=C(C(O)=O)/C(=O)C3=CC(=C2N4CCN(C)CC4)F (stereo unspecified)
- area under concentration-response curve [1]: 474
- area under concentration-response curve [2]: 517
- area under concentration-response curve [3]: 537

SMILES: COc1cc([C@H]2Oc3cc([C@H]4Oc5cc(O)cc(O)c5C(=O)[C@@H]4O)ccc3O[C@@H]2CO)ccc1O
- area under concentration-response curve [1]: 585
- area under concentration-response curve [2]: 587
- area under concentration-response curve [3]: 632

SMILES: NC\1=N\C(=O)N(\C=N1)[C@H]2C[C@H](O)[C@@H](CO)O2
- area under concentration-response curve [1]: 500
- area under concentration-response curve [2]: 484
- area under concentration-response curve [3]: 588

SMILES: Cc1onc(-c2ccc(F)cc2)c1COc1ccc(C(=O)N2CC[S+](=O)([O-])CC2)cn1
- area under concentration-response curve [1]: 596
- area under concentration-response curve [2]: 616
- area under concentration-response curve [3]: 646

SMILES: COC[C@@H](c1ccc(C(F)(F)F)cc1)N1CCN(C2(C)CCN(C(=O)c3c(C)ncnc3C)CC2)C[C@@H]1C
- area under concentration-response curve [1]: 501
- area under concentration-response curve [2]: 513
- area under concentration-response curve [3]: 541

SMILES: COC1=CC(=CC(=C1CN(C)C)OC)\C2=C\N(C)C(=O)C3=C2C=CN=C3
- area under concentration-response curve [1]: 500
- area under concentration-response curve [2]: 479
- area under concentration-response curve [3]: 578

SMILES: C[C@]12CC[C@@H]3c4ccc(O)cc4C[C@@H](CCCCCCCCC[S+]([O-])CCCC(F)(F)C(F)(F)F)[C@H]3[C@@H]1CC[C@@H]2O (stereo partly specified)
- area under concentration-response curve [1]: 391
- area under concentration-response curve [2]: 530
- area under concentration-response curve [3]: 564

SMILES: CCOC(=O)/C=C/[C@H](C[C@@H]1CCNC1=O)NC(=O)[C@@H](CC(=O)[C@@H](NC(=O)c1cc(C)on1)C(C)C)Cc1ccc(F)cc1
- area under concentration-response curve [1]: 530
- area under concentration-response curve [2]: 539
- area under concentration-response curve [3]: 523
